Results from patent US12428443B2, “Abiraterone precursor compound and preparation method and use thereof” (SUZHOU AIHE PHARMACEUTICAL TECHNOLOGY CO., LTD., priority 2021, dated 2025).
Like-named read-outs stand apart in the source and are kept apart here.

Columns and labels:
VCAP = test: CellTiter-Glo chemiluminescent cell viability assay (CTG method), VCAP; format: cell-based; settings: VCAP cells, 72 h; for IC50: read-out: Absolute IC50
Procedure: (§1) Half-maximal inhibitory concentrations (IC50) of abiraterone acetate and LHY-AB614 for proliferation of LNCAP clone FGC and VCAP were assessed by a CellTiter-Glo® chemiluminescent cell viability assay (namely, a CTG method). Cells in an exponential phase were collected, and live cells were counted. Each cell suspension was adjusted with a corresponding medium to an appropriate concentration. 90 μL of a cell suspension was added to each well of a 96-well plate and cultivated in a 37° C. and 5% CO2 incubator for 24 h. A sample to be tested was dissolved in DMSO to prepare a stock solution with a starting concentration of 50 μM, and the stock solution was 3-fold diluted with a medium to obtain 10× working solutions with 9 concentrations. Cisplatin, as a reference compound, was dissolved in DMSO to prepare a stock solution with a starting concentration of 100 μM, and the stock solution was 3-fold diluted with a medium to obtain 10× working solutions with 9 concentrations. 10 μL of a working solution was added to cells in each well, and then the cells were cultivated in a 37° C. and 5% CO2 incubator for 72 h. The 96-well plate was equilibrated at room temperature for about 30 min, then 50 μL of a CTG solution was added to each well, and the 96-well plate was shaken on a microplate shaker for 2 min to perform cell lysis and placed at room temperature for 20 min to stabilize a fluorescence signal. A fluorescence signal value was determined with an Envision2104 plate reader. On the GraphPad Prism software, a nonlinear regression model was used to plot an S-type dose-response curve and calculate an IC50 value.

LNCAP clone FGC = test: CellTiter-Glo chemiluminescent cell viability assay (CTG method), LNCAP; format: cell-based; settings: LNCAP cells, 72 h; for IC50: read-out: Absolute IC50
Procedure: as §1

[1] = cited from earlier work
[2] = Comparative study of pharmacokinetic properties in Beagle dogs (oral); format: in vivo
Procedure: Four healthy Beagle dogs with body weights in a range of 6 kg to 8 kg were selected. The Beagle dogs were fasted for 12 h the day before an experiment, and all were given a low-fat standard meal after administration. The Beagle dogs should not be administered with other drugs two weeks before the experiment and during the experiment. The four Beagle dogs were randomly divided into a group A and a group B (2 dogs in each group). LHY-AB614 was administered orally at a dose of 46.8 mg/kg (32.2 mg/kg based on abiraterone), and abiraterone acetate was administered orally at a dose of 42.3 mg/kg (37.8 mg/kg based on abiraterone). Blank blood was collected in an EDTA-K2 anticoagulation tube before administration, and at 0.25 h, 0.5 h, 1.0 h, 2.0 h, 4.0 h, 6.0 h, 8.0 h, and 24.0 h after administration, 1 mL of blood was collected in EDTA-K2 anticoagulation tubes. After blood was fully mixed with an anticoagulant, each of the anticoagulation tubes was immediately placed in ice and centrifuged as soon as possible to isolate plasma, and the isolated plasma was stored in labeled EP tubes. 50 μL of a plasma sample was taken, 300 μL of a 10 ng/mL carbamazepine-containing acetonitrile solution was added for protein precipitation, and a resulting mixture was vortexed for 5 min and then centrifuged in a centrifuge at 5,500 g for 10 min; and 100 μL of a resulting supernatant was taken, 300 μL of 50%-methanol water was added for dilution, a resulting dilution was vortexed, and 5 μL of a vortexed dilution was injected. In vivo drug concentrations of LHY-AB614, abiraterone acetate, and abiraterone were determined by HPLC-MS/MS.

[3] = Solubility test in normal saline; format: physicochemical; settings: saline or isotonic, thermodynamic from solid
Procedure: 200 mg of LHY-AB614-622 was weighed, and 1 mL of normal saline was added.
2 mg of abiraterone acetate was weighed and dissolved in 1 mL of normal saline, a resulting solution was stirred overnight and then subjected to suction filtration, and a resulting filtrate was subjected to HPLC analysis. Abiraterone acetate was dissolved in methanol to prepare a 0.1 mg/mL solution as a control.

[4] = Beagle, dog, in vivo, po, 46.8 mg/kg

Compound: N.N.[Cl][Pt][Cl] [Cisplatin]
- Max inhibition (VCAP): 85.02%
- IC50 (VCAP): 40.3 µM
- Max inhibition (LNCAP clone FGC): 97.49%
- IC50 (LNCAP clone FGC): 12.8 µM

Compound: CC(=O)O[C@H]1CC[C@@]2(C)C(=CC[C@@H]3[C@@H]2CC[C@]2(C)C(c4cccnc4)=CC[C@@H]32)C1 [Abiraterone acetate, abiraterone acetate]
- death risk reduced ([1]; combination with prednisone versus placebo and prednisone): 35%
- median survival time prolonged versus placebo and prednisone ([1]; combination with prednisone, p<0.0001): 3.9 months
- median survival time ([1]; patient treated with a combination of abiraterone acetate and prednisone): 14.8 months
- IC50 (VCAP; Homo sapiens): > 50 µM
- Max inhibition (VCAP): 29.43%
- species detected in vivo after administration ([2]; oral, Beagle dogs, plasma, HPLC-MS/MS): Only abiraterone is detected in vivo
- solubility [3]: < 100 µg/mL
- IC50 (LNCAP clone FGC; Homo sapiens, LNCaP-Clone-FGC): 15.5 µM
- Max inhibition (LNCAP clone FGC): 78.30%

Compound: CN(C)CCOCCOC(=O)O[C@H]1CC[C@@]2(C)C(=CC[C@@H]3[C@@H]2CC[C@]2(C)C(c4cccnc4)=CC[C@@H]32)C1 [LHY-AB614]
- IC50 (VCAP; Homo sapiens): 5.7 µM
- species detected in vivo after administration ([2]; Beagle, dog, in vivo, po): LHY-AB614 and abiraterone both can be detected in vivo
- AUC0-inf [2, 4]: 6186 ng·h/mL
- AUC0-t [2, 4]: 6116 ng·h/mL
- AUC(0-inf) [2, 4]: 1060 ng·h/mL
- AUC(0-t) [2, 4]: 908 ng·h/mL
- Cls, app [2, 4]: 757
- T1/2 [2, 4]: 3.7 h
- Tmax [2, 4]: 1.5 h
- half-life [2, 4]: 6.8 h
- AUC compared with the administration of abiraterone acetate ([2]; dog, in vivo, po): significantly increases
- Cmax of abiraterone compared with Cmax of LHY-AB614 ([2]; dog, in vivo, po): much higher
- Cmax of abiraterone compared with the administration of abiraterone acetate ([2]; dog, in vivo, po): significantly increases
- Tmax compared with the administration of abiraterone acetate ([2]; dog, in vivo, po): does not change
- IC50 (LNCAP clone FGC; Homo sapiens, LNCaP-Clone-FGC): 3.2 µM

Compound: CN(C)CCOCCOC(=O)O[C@H]1CC[C@@]2(C)C(=CC[C@@H]3[C@@H]2CC[C@]2(C)C(c4cccnc4)=CC[C@@H]32)C1 [Compound represented by formula I]
- IC50 (VCAP; Homo sapiens): 5.7 µM
- Max inhibition (VCAP): 99.31%
- IC50 (LNCAP clone FGC; Homo sapiens, LNCaP-Clone-FGC): 3.2 µM
- Max inhibition (LNCAP clone FGC): 99.49%
